{"source": "paper PMC9321043", "about": "“Synthesis, Structure–Activity Relationships, and Parasitological Profiling of Brussonol Derivatives as New Plasmodium falciparum Inhibitors” (Pharmaceuticals, 2022)", "key": {"HepG2 cells": {"system": "HepG2 cells", "assay": "Cytotoxic test on immortalized cells, MTT", "type": "cell-based, human", "conditions": "Homo sapiens, HepG2, 72 h", "procedure": "The cytotoxic effects of brussonol and derivatives were evaluated against the human hepatocellular carcinoma cell line (HepG2). The cells were cultivated in an RPMI medium supplemented with 10% (v/v) fetal bovine serum and 25 µg/mL gentamicin. Conditions for the cultivation of these cells were 37 °C and 5% CO2, and every 2 days the supplemented medium was changed.\nFor experimental procedures, the cells were trypsinized and transferred to a 96-well plate at 30,000 cells per well (180 µL). The plate was incubated at 37 °C and 5% CO2 to allow cell adhesion. Next, 20 µL of serial dilutions of the compounds tested were added to the plate, with a range of concentrations tested from 400–6.25 µM. Cells without any compounds were used as a positive control for growing and the wells containing only medium were used as negative controls. The plate was incubated for 72 h at 37 °C and 5% CO2. After incubation, a microscope was used to determine the highest compound concentration to be used in the experiments (highest concentration without precipitation). A colorimetric assay was used to evaluate cytotoxicity. This assay is based on the metabolic cell activity in the presence of 3-(4,5-dimethylthiazol-2-yl)-2,5-diphenyltetrazolium bromide (MTT). Shortly after incubation, 20 µL of a solution of MTT at 5 mg/mL (solubilized in phosphate buffer) is added to each well. The plate is incubated for 3 to 4 h at 37 °C to allow MTT cleavage in living cells. Then, the supernatant is removed, and 100 µL of dimethylsulfoxide (DMSO) is added to solubilize the purple formazan crystals. The absorbance, which is proportional to the number of viable cells, was determined using a SpectraMAX Plus 384 plate reader (Molecular Devices Corp., Sunnyvale, CA) (λ = 570 nm). All compounds described here were purchased from Sigma-Aldrich (verificar local).\nAfter the IC50 against the parasite and the human cell line is determined, it is possible to calculate the SI. It is calculated as the formula below:SI = IC50^HepG2/IC50^Pf.\nFor our reference, compounds with SI values higher than 10 are considered well tolerated by the cellular model used, and they are considered for further evaluation."}, "P. falciparum": {"system": "P. falciparum", "assay": "In vitro combination with artesunate, fixed-ratio isobologram", "type": "cell-based, Plasmodium falciparum", "from_the_text": "A drug combination investigation is important to assess whether the combination of the tested compound with a known antimalarial drug is advantageous or not. In this assay, a fixed molar ratio was used to assess the combination profile of brussonol and artesunate. The range of concentrations tested was based on the assessed IC50 values of both the compounds previously determined. In this method, we first determined the additive isobole, which defined the range of IC50 values pairs to be attributed to an additive (neutral) character of combination. Next, the combination pairs were plotted. Data points distributed below or above the additive isobole indicate a synergic or antagonistic profile, respectively.\nThis assay was adapted from the work done by Fivelman and collaborators (2004). Consideration of additivity ranges was included in the analysis, as described by Grabovsky and Tallarida (2004). Brussonol and artesunate were diluted and combined in a 96-well plate in […] fixed-ratio combinations (1:0, 6:1, 5:2, 4:3, 3:4, 2:5, 1:6, 0:1). Starting concentrations were 6× IC50 for both compounds. […] The absolute IC50s of brussonol and artesunate (proportions 1:0 and 0:1), the partial IC50s (IC50^brussonol and IC50^artesunate) for each combination (6:1, 5:2, 4:3, 3:4, 2:5, 1:6), and the fractional inhibitory concentrations for each combination were determined."}, "hemozoin formation": {"system": "hemozoin formation", "assay": "Hemozoin formation inhibition assay", "type": "biochemical", "conditions": "hemin 25 µM, pH 4.8, 4 h, one experiment in triplicate", "procedure": "2. Hemozoin Formation Inhibition Assay\nThe hemozoin formation inhibition assay was performed as described previously.12 Briefly, serial 1:3 dilutions, in a 96‐well plate, wit h brussonol were made in a final volume of 20 μL in a concentration 10 times higher than the final concentration of the assay. Secondly, 90 μ L of freshly prepared hemin (at a final concentration of 25 μM) solution in 1M NaOAc/HOAc buffer pH 4.8 were added followed by addition of 90 μ L of 5.4 mg/L Tween 20 solution freshly prepared. The plates were let to stand for 4 hours at 37 °C followed by resuspension with multichannel pippete and read at 415 and 630 nm using a SpectraMAX Plus 384 plate reader (Molecular Devices Corp., Sunnyvale, CA).\nDue to the absence of enough compound, this experiment wa s performed only once, but with internal triplicate. Chloroquine (CQ) and pyrimethamine (PYR) were used as positive and negative control of inhibition, respectively.\nInhibition (%) = 100 – 100 x [(Aco ntro l – Asample) / (Acontrol - Amin)] Acontrol is the difference of the absorbance at 415 and 630 nm of the negative control (Hemin +, Tween 20 ‐, Compound ‐); Amin is the difference of the absorbance at 415 and 630 nm of the positive control (Hemin +, Tween 20 +, Compound ‐ ); Asample is the difference of the absorbance at 415 and 630 nm of the sample. The hemozoin formation inhibition assay was performed to evaluate if brussonol act inhibiting hemozoin formation in P. falciparum. CQ, which is a well‐known inhibitor of hemozoin […]\nFigure S1. Hemozoin formation inhibition assay. Different concentrations of CQ (black triangles), PYR (red squares) and brussonol (blue circles) were incubated with heme in triplicates. Th e absorbance was recorded at 415/630 nm to determine the hemozoin formation inhibition. […]"}}, "note": "Where “and” joins values, the source holds several entries; their conditions need not be identical. Equal entries are not always repeated.", "data": [{"smiles": "CC(C)c1cc2c(c(O)c1O)C[C@@]13CCCC(C)(C)[C@@H]1C[C@@H]2O3", "note": "[Compound 1, brussonol]", "values": [{"measurement": "IC50", "setting": "HepG2 cells", "value": "67 ± 4", "unit": "µM"}, {"measurement": "sum of fractional inhibitory concentrations (FICindex)", "setting": "P. falciparum; brussonol combined with artesunate, proportion 1:1 respective to each IC50", "value": "~ 1 and 1.1 ± 0.1"}, {"measurement": "combination profile with artesunate", "setting": "P. falciparum; isobologram, fixed-ratio combinations", "value": "additive effect"}, {"measurement": "hemozoin formation inhibition (in words)", "setting": "hemozoin formation; listed as Brussonol", "value": "do not act inhibiting hemozoin formation"}, {"measurement": "hemozoin formation inhibition (in words)", "setting": "hemozoin formation; listed as brussonol", "value": "did not interfere with hemozoin polymerization"}]}]}
